Where two headings read alike, the source gives them in different places.
Tests used:
IMR90 = assay: MTT viability assay, IMR90 non-transformed lung fibroblasts; type: cell-based, human; settings: for selectivity for the NSCLC cell lines over the lung fibroblasts: IMR90 vs NSCLC cell lines, MTT 48 h; for IC50: mean ± span, 48 h treatment, MTT, non-transformed human lung fibroblasts
Procedure: (§1) NSCLC cell lines were obtained from the Hamon Center for Therapeutic Oncology Research (UT Southwestern Medical Center). IMR-90 human lung fibroblasts were from ATCC (CC-186). All cell lines were maintained and treated in RPMI medium (Cytiva (Shanghai, China), #SH30027), supplemented with 10% heat-inactivated FBS (Millipore Sigma (Darmstadt, Germany), F0394).
(§2) 5000–10,000 cells/0.1 mL/well were seeded in 96-well plates to achieve 70% confluence after 24 h. All drug stock solutions were prepared fresh in DMSO at a concentration of 10 mM. The day after cell plating, we added 0.1 mL of medium containing the appropriate drug dilutions. After 48 h of treatment, 10 μL of MTT solution (5 mg/mL) was added to each well. After 4 h incubation, the medium was aspirated, and the formazan salts dissolved in 200 μL DMSO/well for 10 min at 37 °C. The absorbance was read at 570 nm (OD 570 nm). Data are represented as mean ± SD of two independent experiments.
(§3) Statistical and data analysis was performed using GraphPad Prism (v10). IC50 values were calculated using a three-parameter non-linear regression model with log(inhibitor) vs. response. For the TxrR activity statistics, the groups were compared using a two-way ANOVA followed by Dunnett’s multiple comparisons with alpha = 0.05. The correlation between IC50 values and TxrR activity was achieved using Pearson correlation with alpha = 0.05.

H1355 = assay: MTT viability assay, H1355; type: cell-based, human; settings: mean ± span, 48 h treatment, cell line with KRAS mutation
Procedure: as §1, §2, §3

HCC-44 = assay: MTT viability assay, HCC-44; type: cell-based, human; settings: mean ± span, 48 h treatment, cell line with KRAS mutation
Procedure: as §1, §2, §3

H1395 = assay: MTT viability assay, H1395; type: cell-based, human; settings: mean ± span, 48 h treatment, cell line without KRAS mutation
Procedure: as §1, §2, §3

[1] = tested on: human NSCLC cell lines with KRAS mutations; assay: MTT assay, average across NSCLC cell lines with KRAS mutations; type: cell-based; settings: 48 h, read-out: IC50 * averaged values
Procedure: as §1, §2, §3

[2] = target: T1, recombinant human DHFR (hDHFR) (Homo sapiens, UniProt P00374); assay: Cell-free human dihydrofolate reductase enzymatic activity; type: biochemical; settings: for effect on hDHFR enzymatic activity: H2F sub-saturating (~20 µM) and close to Km (~3 µM)
T1 construct: made in house; host or cells: E. coli BL21, plasmid pET17b (gift of C. Robert Matthews)
T1 sequence (P00374 1-187): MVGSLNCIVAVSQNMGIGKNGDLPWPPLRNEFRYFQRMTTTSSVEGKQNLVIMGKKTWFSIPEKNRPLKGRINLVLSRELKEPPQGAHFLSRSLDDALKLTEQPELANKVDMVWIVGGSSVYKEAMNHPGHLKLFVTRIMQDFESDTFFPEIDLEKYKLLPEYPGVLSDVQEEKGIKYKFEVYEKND
Procedure: Recombinant human DHFR was overexpressed and purified from pET17b (+) encoding the hDHFR gene/BL21 (Novagene® (Hong Kong, China)) E. coli cells as described in the literature. The protein purity was verified as a single band in Coomassie-stained SDS-PAGE. The concentration of the hDHFR was measured spectrophotometrically at 280 nm using the extinction coefficient of 28,400 M^−1 cm^−1 and resulted to be equal to 14 µM. The activity of the DHFR was followed by recording the absorbance over time at 340 nm in a UV-VIS spectrophotometer Shimadzu UV-2450. The procedure consisted of mixing the 50 mM Hepes buffer (pH 7.3) with saturating concentration NADPH ([…]) and […] hDHFR, incubating at 37 °C for 5 min, and starting the reaction by adding H2F at various concentrations. When testing the inhibition capacity of gold complexes, the reaction mixture was prepared by adding increasing concentrations of the tested compounds before the incubation at 37 °C. Since the gold complexes were solubilized in 100% methanol (HPLC-grade, Carlo Erba), the enzymatic activity of hDHFR was also assessed in the presence of the equal volumes of MeOH used in the assays with the gold complexes and eventually subtracted. Data are represented as mean ± SEM of 2 independent experiments and analyzed according to best-fit models using GraphPad Prism (v10).
For the data analysis of hDHFR enzymatic activity, the sigmoidal non-linear fitting model in the GraphPad Prism (v10) was used, in which the concentration of inhibitor was expressed as concentrations: Y = Bottom + (Top − Bottom)/(1 + (IC50/X)^HillSlope). Figures were partially prepared with BioRender (https://app.biorender.com) accessed on 25 July 2024).

SMILES | selectivity for the NSCLC cell lines over the lung fibroblasts (IMR90) | IC50 (IMR90) [µM] | IC50 (H1355) [µM] | IC50 (HCC-44) [µM] | IC50 (H1395) [µM] | IC50 [1] [µM] | magnitude of inhibition, hDHFR ([2]; H2F concentration 3.47 µM) | IC50 ([2]; H2F concentration 3.47 µM, read-out: hDHFR IC50) [µM] | magnitude of inhibition, hDHFR ([2]; H2F concentration 21.0 µM) | IC50 ([2]; H2F concentration 21.0 µM, read-out: hDHFR IC50) [µM] | effect on hDHFR enzymatic activity [2] | IC50 ([2]; H2F concentration 3.89 µM, sigmoidal fit, read-out: hDHFR IC50) [µM] | IC50 ([2]; H2F concentration 22.6 µM, sigmoidal fit, read-out: hDHFR IC50) [µM] | reduction of the enzymatic activity of hDHFR (conclusions) ([2]; dihydrofolate concentration comparable with the Km) [%] | IC50 ([2]; dihydrofolate concentration comparable with the Km, read-out: hDHFR IC50 (conclusions)) [µM]
Clc1n[c]([Au-][P+](c2ccccc2)(c2ccccc2)c2ccccc2)n(Cc2ccccc2)c1Cl [Compound 7] | good selectivity | 63 ± 2.5 | 7.8 ± 0.61 | 9.2 ± 1.02 | 6.3 ± 0.98 | 10 | ~ 50% | 10.9 ± 9.77 | ~ 50% | 23.6 ± 20.7 | very little effect on the enzymatic activity |  |  |  | 
Cn1cc[n+](C)[c]1[Au-2]([Cl])[P+](c1ccccc1)(c1ccccc1)c1ccccc1 [Compound 8] | good selectivity | 87 ± 4.9 | 6.4 ± 0.65 | 7.3 ± 1.05 | 5.9 ± 0.97 | 11 |  |  |  |  | important inhibitory function | 15 ± 1.25 | 14.8 ± 1.25 | 80 | ~15

Reference: paper PMC11435220, “Anticancer Activity of Imidazolyl Gold(I/III) Compounds in Non-Small Cell Lung Cancer Cell Lines” (Pharmaceuticals, 2024)
